In patent US20240066155A1, “DUAL MODE RADIOTRACER AND -THERAPEUTICS” (priority 2021, published 2024):
Where “and” joins values, the source holds several entries; their conditions need not be identical. Equal entries are not always repeated.

Tests used:
human serum albumin = target: T1, human serum albumin (Homo sapiens, UniProt P02768); test: Binding to human serum albumin by albumin mediated size exclusion chromatography (AMSEC); format: in vitro ADME; conditions: size exclusion chromatography with HSA in the mobile phase, 177Lu-labeled
T1 construct: purchased Biowest, Nuaillé, France
T1 sequence (P02768 25-609): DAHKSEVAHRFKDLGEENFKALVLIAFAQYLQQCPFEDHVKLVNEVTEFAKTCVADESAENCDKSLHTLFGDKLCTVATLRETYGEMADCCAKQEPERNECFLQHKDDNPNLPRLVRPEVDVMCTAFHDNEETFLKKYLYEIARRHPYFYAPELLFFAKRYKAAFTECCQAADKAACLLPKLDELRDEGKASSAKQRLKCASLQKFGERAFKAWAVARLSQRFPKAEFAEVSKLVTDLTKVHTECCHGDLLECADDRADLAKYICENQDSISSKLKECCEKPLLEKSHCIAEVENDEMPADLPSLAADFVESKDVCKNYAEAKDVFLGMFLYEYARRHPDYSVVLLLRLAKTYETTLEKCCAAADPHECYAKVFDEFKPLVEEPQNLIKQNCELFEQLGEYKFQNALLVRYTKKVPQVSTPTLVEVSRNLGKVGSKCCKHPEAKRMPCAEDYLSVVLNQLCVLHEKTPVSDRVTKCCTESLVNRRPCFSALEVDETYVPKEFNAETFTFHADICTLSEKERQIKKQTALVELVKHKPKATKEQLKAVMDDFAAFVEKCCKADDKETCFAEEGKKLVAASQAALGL
Protocol: Binding of ^177Lu-labeled ligands to HSA was assessed by albumin mediated size exclusion chromatography (AMSEC). A gel filtration size exclusion column (Superdex 75 Increase 10/300 GL, GE Healthcare, Uppsala, Sweden) was used with HSA buffer at physiological concentration (700 μM, Biowest, Nuaillé, France) as mobile phase (constant flow rate of 0.8 mL/min at room temperature). For calibration purposes, a commercially available set of proteins (GE Healthcare, Buckinghamshire, UK) was used. Under these chromatographic conditions, the retention time of a radioligand (1.0 MBq, 10-20 GBq/μmol) depends on the extent of HSA/ligand interactions and thus, by means of the calibration with the aforementioned set of proteins, can be translated into an AMW (expressed in kDa) as a parameter allowing to quantify the extent of HSA binding. The detection window ranges between 2.3 kDa ([^18F]Fluoride; no HSA interaction) and 70.2 kDa (experimental molecular weight of HSA; maximum HSA interaction).

[1] = Lipophilicity, n-octanol/PBS (pH 7.4) distribution; format: physicochemical; conditions: n-octanol/PBS pH 7.4, 177Lu-labeled, n=6
Protocol: Approximately 1 MBq of the ^177Lu-labeled PSMA ligand was dissolved in 1 mL of a 1:1 mixture (v/v) of phosphate-buffered saline (PBS, pH 7.4) and n-octanol (n=6). After vigorous mixing of the suspension for 3 min, the vial was centrifuged at 15000×g for 3 min and 100 μL aliquots of both layers were measured in a γ-counter. Finally, the ratio of the radioactivity detected in the n-octanol sample and the PBS buffer was calculated and expressed as distribution ratio log D7.4.

LNCaP cells = test: PSMA-mediated internalization into LNCaP cells; format: cell-based; conditions: 1 h, 37° C., percentage of reference ligand ([125I]BA)KuE, n=3
Protocol: (§1) Competitive binding studies were determined on LNCaP cells (1.5×10^5 cells in 1 mL/well) after incubation at 4° C. for 1 h, using (((S)-1-carboxy-5-(4-([^125I]iodo)benzamido)pentyl)carbamoyl)-L-glutamic acid ([^125I]BA)KuE; 0.2 nM/well) as reference radioligand (n=3). Internalization studies of the radiolabeled ligands (1.0 nM/well) were performed on LNCaP cells (1.25×10^5 cells in 1 mL/well) at 37° C. for 1 h and accompanied by ([^125I]BA)KuE (0.2 nM/well), as reference. Data were corrected for non-specific binding and normalized to the specific internalization observed for the reference (n=3). A detailed description of the experimental procedures was previously published (Wurzer A, et al. J Nucl Med. 2020; 61: 735-742).

PSMA = target: T2, PSMA (Homo sapiens, UniProt Q04609); test: Competitive binding studies on LNCaP cells vs ([125I]BA)KuE (affinity, IC50); conditions: 1 h, 4° C., natLu complexes
T2 construct: endogenous in cells; host or cells: LNCaP cells
T2 sequence (Q04609 whole entry): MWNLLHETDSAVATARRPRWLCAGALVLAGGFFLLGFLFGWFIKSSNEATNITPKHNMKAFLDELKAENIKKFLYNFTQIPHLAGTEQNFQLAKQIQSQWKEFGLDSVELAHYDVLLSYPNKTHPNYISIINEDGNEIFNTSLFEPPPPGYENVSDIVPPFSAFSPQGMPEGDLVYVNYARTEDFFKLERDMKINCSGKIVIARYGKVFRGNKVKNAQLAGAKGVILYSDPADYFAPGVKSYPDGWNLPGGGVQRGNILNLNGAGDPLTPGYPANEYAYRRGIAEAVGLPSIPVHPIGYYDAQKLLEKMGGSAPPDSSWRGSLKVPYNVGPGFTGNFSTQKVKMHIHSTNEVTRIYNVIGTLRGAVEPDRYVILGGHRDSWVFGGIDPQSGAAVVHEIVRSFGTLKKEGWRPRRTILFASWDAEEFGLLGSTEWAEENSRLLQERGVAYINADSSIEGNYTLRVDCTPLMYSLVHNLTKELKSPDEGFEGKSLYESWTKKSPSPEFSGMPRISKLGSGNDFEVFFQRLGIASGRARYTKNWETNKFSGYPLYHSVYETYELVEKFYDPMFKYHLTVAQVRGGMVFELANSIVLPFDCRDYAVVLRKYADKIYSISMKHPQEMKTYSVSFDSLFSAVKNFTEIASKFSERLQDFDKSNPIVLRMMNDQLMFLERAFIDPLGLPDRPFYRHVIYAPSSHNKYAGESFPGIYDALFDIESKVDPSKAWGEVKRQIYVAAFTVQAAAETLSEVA
Protocol: as §1

[2] = system: LNCaP tumor-bearing male CB-17 SCID mice; test: Ex vivo biodistribution in LNCaP tumor-bearing CB-17 SCID mice; conditions: 24 h p.i.; for Tumor uptake / Activity accumulation tumor: LNCaP tumor; for Tumor-to-organ ratio adrenals / Tumor-to-organ ratio blood / Tumor-to-organ ratio bone / Tumor-to-organ ratio heart / Tumor-to-organ ratio intestine / Tumor-to-organ ratio kidney / Tumor-to-organ ratio liver / Tumor-to-organ ratio lung / Tumor-to-organ ratio muscle / Tumor-to-organ ratio pancreas / Tumor-to-organ ratio parotid gl. / Tumor-to-organ ratio spleen / Tumor-to-organ ratio stomach / Tumor-to-organ ratio submand. gl.: n=5, mean of ratios per mouse; for Activity accumulation adrenals / Activity accumulation blood / Activity accumulation bone / Activity accumulation heart / Activity accumulation intestine / Activity accumulation kidney / Activity accumulation liver / Activity accumulation lung / Activity accumulation muscle / Activity accumulation pancreas / Activity accumulation parotid gl. / Activity accumulation spleen / Activity accumulation stomach / Activity accumulation submand. gl. / Activity accumulation tumor: n=5, mean, complete dataset
Protocol: All animal experiments were conducted in accordance with general animal welfare regulations in Germany (German animal protection act, as amended on 18 May 2018, Art. 141 G v. 29 Mar. 2017 I 626, approval no. 55.2-1-54-2532-71-13) and the institutional guidelines for the care and use of animals. LNCaP tumor xenografts were established in 6-8 weeks old male CB-17 SCID mice as described previously (Wurzer A, et al. J Nucl Med. 2020; 61: 735-742). Biodistribution Studies. The ^177Ludabeled PSMA inhibitors (2-5 MBq; 0.1 nmol) were injected under isoflurane anesthesia into the tail vein of LNCaP tumor-bearing male CB-17 SCID mice that were sacrificed 24 h post injection (p.i.) (n=4-5). Selected organs were removed, weighed, and measured in a counter. All rhPSMA ligands were evaluated in mice during the same time period (Q1/2020), whereas ^177Ludabeled PSMA-617 and PSMA I&T (Wirtz M, et al. EJNMMI Res. 2018; 8: 84) were assessed previously using the identical cell line, mouse model and experimental procedure.

SMILES	MWapp [kDa] (apparent molecular weight, AMW; HSA binding) (human serum albumin)	logD7.4 [1]	Internalization [% IBA-KuE] (LNCaP cells)	IC50 (PSMA; n=3) [nM]	Tumor uptake [2] [% ID/g]	Tumor-to-organ ratio adrenals [2]	Tumor-to-organ ratio blood [2]	Tumor-to-organ ratio bone [2]	Tumor-to-organ ratio heart [2]	Tumor-to-organ ratio intestine [2]	Tumor-to-organ ratio kidney [2]	Tumor-to-organ ratio liver [2]	Tumor-to-organ ratio lung [2]	Tumor-to-organ ratio muscle [2]	Tumor-to-organ ratio pancreas [2]	Tumor-to-organ ratio parotid gl. [2]	Tumor-to-organ ratio spleen [2]	Tumor-to-organ ratio stomach [2]	Tumor-to-organ ratio submand. gl. [2]	Activity accumulation adrenals [2] [% ID/g]	also measured
O=C([O-])CN1CCN(CC(=O)[O-])CCN(C(CCC(=O)N[C@H](Cc2ccc(O)c(I)c2)C(=O)N[C@H](Cc2ccccc2)C(=O)N[C@H](CCCCNC(=O)CCCCCCC(=O)NCCCC[C@H](NC(=O)N[C@@H](CCC(=O)O)C(=O)O)C(=O)O)C(=O)O)C(=O)O)CCN(CC(=O)[O-])CC1.[Lu+3] (stereo partly shown) [[^177Lu]PSMA I&T]	5.3	−4.1 ± 0.1	145±14 % IBA-KuE and 145.4 ± 13.8 % IBA-KuE	4.17 ± 0.78	4.1±1.1	5.62	1288	358.26	366.06	191.31	0.6	155.09	65.08	1964.92	336.33	63.21	9.06	236.69	136.76	1.3590	IC50 (PSMA; n=3, listed as [^natLu]PSMA I&T): 4.2 ± 0.8 nM; Tumor-to-organ ratio blood ([2]; listed as [^177Lu] PSMA-I&T): 1288.54; Tumor-to-organ ratio kidney ([2]; listed as [^177Lu] PSMA-I&T): 0.61; Activity accumulation blood [2]: 0.0061 % ID/g; Activity accumulation bone [2]: 0.0209 % ID/g; Activity accumulation heart [2]: 0.0208 % ID/g; Activity accumulation intestine [2]: 0.0507 % ID/g; Activity accumulation kidney [2]: 15.9±12.0 % ID/g; Activity accumulation liver [2]: 0.0553 % ID/g; Activity accumulation lung [2]: 0.1138 % ID/g; Activity accumulation muscle [2]: 0.0051 % ID/g; Activity accumulation pancreas [2]: 0.0295 % ID/g; Activity accumulation parotid gl. [2]: 0.1346 % ID/g; Activity accumulation spleen [2]: 1.2047 % ID/g; Activity accumulation stomach [2]: 0.0326 % ID/g; Activity accumulation submand. gl. [2]: 0.0581 % ID/g; Activity accumulation tumor [2]: 7.5780 % ID/g; Activity accumulation kidney ([2]; listed as [^177Lu]PSMA-I&T): 15.8527 % ID/g
CC(C)(C)[Si]([19F])(c1ccc(C(=O)NC[C@@H](NC(=O)CN2CCN(CC(=O)O)CCN(CC(=O)O)CCN(CC(=O)O)CC2)C(=O)N[C@H](CCCCNC(=O)CCC(=O)NCCC[C@@H](NC(=O)CC[C@H](NC(=O)N[C@@H](CCC(=O)O)C(=O)O)C(=O)O)C(=O)O)C(=O)O)cc1)C(C)(C)C [[^177Lu, ^19F]rhPSMA-10.1, metal not drawn]	25.1	−3.8 and −3.78 ± 0.06	177.4 ± 14.6 % IBA-KuE	2.76 ± 0.51	9.8±0.3	137.57	9117	389.88	641.37	250.87	5.5	72.52	404.28	2431.90	797.72	206.18	63.66	351.52	344.45	0.0983	Kidney uptake as percentage of that of [177Lu, 19F]rhPSMA-7.3 [2]: 20%; Tumor-to-blood ratio, times higher compared to [177Lu, 19F]rhPSMA-7.3 [2]: 2 times; Tumor-to-blood ratio, times higher compared to [177Lu]PSMA-617 [2]: 7 times; Tumor-to-organ ratio blood ([2]; listed as [^177Lu]rhPSMA-10.1): 9117.20; Tumor-to-organ ratio kidney ([2]; listed as [^177Lu]rhPSMA-10.1): 5.52; Activity accumulation blood [2]: 0.0019 % ID/g; Activity accumulation bone [2]: 0.0298 % ID/g; Activity accumulation heart [2]: 0.0192 % ID/g; Activity accumulation intestine [2]: 0.0642 % ID/g; Activity accumulation liver [2]: 0.1631 % ID/g; Activity accumulation lung [2]: 0.0346 % ID/g; Activity accumulation muscle [2]: 0.0053 % ID/g; Activity accumulation pancreas [2]: 0.0155 % ID/g; Activity accumulation parotid gl. [2]: 0.0551 % ID/g; Activity accumulation spleen [2]: 0.1828 % ID/g; Activity accumulation stomach [2]: 0.0388 % ID/g; Activity accumulation submand. gl. [2]: 0.0338 % ID/g; Activity accumulation tumor [2]: 11.5563 % ID/g; Activity accumulation kidney ([2]; listed as [^177Lu]rhPSMA-10.1): 2.4219 % ID/g
CC(C)(C)[Si](F)(c1ccc(C(=O)NC[C@H](NC(=O)CC[C@H](C(=O)O)N2CCN(CC(=O)[O-])CCN(CC(=O)[O-])CCN(CC(=O)[O-])CC2)C(=O)N[C@H](CCCCNC(=O)CCC(=O)NCCC[C@@H](NC(=O)CC[C@H](NC(=O)N[C@@H](CCC(=O)O)C(=O)O)C(=O)O)C(=O)O)C(=O)O)cc1)C(C)(C)C.[Lu+3] [[^177Lu, ^19F]rhPSMA-7.2]	31.7	−4.25 ± 0.29	197.3 ± 15.0 % IBA-KuE	2.88 ± 1.06																	
CC(C)(C)[Si](F)(c1ccc(C(=O)NC[C@@H](NC(=O)CC[C@H](C(=O)O)N2CCN(CC(=O)[O-])CCN(CC(=O)[O-])CCN(CC(=O)[O-])CC2)C(=O)N[C@H](CCCCNC(=O)CCC(=O)NCCC[C@@H](NC(=O)CC[C@H](NC(=O)N[C@@H](CCC(=O)O)C(=O)O)C(=O)O)C(=O)O)C(=O)O)cc1)C(C)(C)C.[Lu+3] [[^177Lu, ^19F]rhPSMA-7.1]	26.3	−4.27 ± 0.24	137±6 % IBA-KuE and 137.4 ± 5.8 % IBA-KuE	3.11 ± 0.64																	
CC(C)(C)[Si](F)(c1ccc(C(=O)NC[C@H](NC(=O)CC[C@@H](C(=O)O)N2CCN(CC(=O)[O-])CCN(CC(=O)[O-])CCN(CC(=O)[O-])CC2)C(=O)N[C@H](CCCCNC(=O)CCC(=O)NCCC[C@@H](NC(=O)CC[C@H](NC(=O)N[C@@H](CCC(=O)O)C(=O)O)C(=O)O)C(=O)O)C(=O)O)cc1)C(C)(C)C.[Lu+3] [[^177Lu, ^19F]rhPSMA-7.4]	35.7	−4.10 ± 0.14	190.4 ± 10.5 % IBA-KuE	3.06 ± 1.51																	
O=C([O-])CN1CCN(CC(=O)[O-])CCN(CC(=O)NCC2CCC(C(=O)N[C@@H](Cc3ccc4ccccc4c3)C(=O)NCCCC[C@H](NC(=O)N[C@@H](CCC(=O)O)C(=O)O)C(=O)O)CC2)CCN(CC(=O)[O-])CC1.[177Lu+3] (stereo partly shown) [[^177Lu]PSMA-617]	13.7	−4.1 ± 0.1	203±10 % IBA-KuE and 203.2 ± 10.1 % IBA-KuE	3.27 ± 0.19																	IC50 (PSMA; n=3, listed as [^natLu]PSMA-617): 3.3 ± 0.2 nM
